In this experiment the test system is Monoclonal antibody (mAb). Kind of experiment: Binding affinity towards monoclonal antibody (MAb) using ELISA assay, activity expressed relative to WQMGHS=1.

Compound `CSCC[C@@H](NC(=O)[C@@H](CCC(N)=O)NC(=O)[C@@H](N)Cc1c[nH]c2ccccc12)C(=O)NCC(=O)N[C@H](Cc1c[nH]cn1)C(=O)N[C@H](CO)C(=O)O` displayed a Relative activity of 0.36. The compound `CSCC[C@@H](NC(=O)[C@H](CCC(N)=O)NC(=O)[C@@H](N)Cc1c[nH]c2ccccc12)C(=O)NCC(=O)N[C@H](Cc1c[nH]cn1)C(=O)N[C@H](CO)C(=O)O` registered a Relative activity of 0.33.

With `CSCC[C@H](NC(=O)[C@@H](CCC(N)=O)NC(=O)[C@@H](N)Cc1c[nH]c2ccccc12)C(=O)NCC(=O)N[C@@H](Cc1c[nH]cn1)C(=O)N[C@H](CO)C(=O)O`, the Relative activity was 0.86. Consider `CSCC[C@H](NC(=O)[C@H](CCC(N)=O)NC(=O)[C@H](N)Cc1c[nH]c2ccccc12)C(=O)NCC(=O)N[C@@H](Cc1c[nH]cn1)C(=O)N[C@@H](CO)C(=O)O`, for which the Relative activity came out at 1.33.

`CSCC[C@@H](NC(=O)[C@@H](CCC(N)=O)NC(=O)[C@@H](N)Cc1c[nH]c2ccccc12)C(=O)NCC(=O)N[C@H](Cc1c[nH]cn1)C(=O)N[C@@H](CO)C(=O)O`: the Relative activity turned out to be 1.58. The value for `CSCC[C@H](NC(=O)[C@H](CCC(N)=O)NC(=O)[C@H](N)Cc1c[nH]c2ccccc12)C(=O)NCC(=O)N[C@@H](Cc1c[nH]cn1)C(=O)N[C@H](CO)C(=O)O` was 0.83; that for `CSCC[C@@H](NC(=O)[C@@H](CCC(N)=O)NC(=O)[C@H](N)Cc1c[nH]c2ccccc12)C(=O)NCC(=O)N[C@@H](Cc1c[nH]cn1)C(=O)N[C@@H](CO)C(=O)O` was 1.89.

Consider `CSCC[C@@H](NC(=O)[C@H](CCC(N)=O)NC(=O)[C@H](N)Cc1c[nH]c2ccccc12)C(=O)NCC(=O)N[C@@H](Cc1c[nH]cn1)C(=O)N[C@@H](CO)C(=O)O`, for which the Relative activity is 0.75. The value for `CSCC[C@@H](NC(=O)[C@H](CCC(N)=O)NC(=O)[C@H](N)Cc1c[nH]c2ccccc12)C(=O)NCC(=O)N[C@H](Cc1c[nH]cn1)C(=O)N[C@@H](CO)C(=O)O` was 1.16. The value for `CSCC[C@H](NC(=O)[C@@H](CCC(N)=O)NC(=O)[C@H](N)Cc1c[nH]c2ccccc12)C(=O)NCC(=O)N[C@@H](Cc1c[nH]cn1)C(=O)N[C@H](CO)C(=O)O` was 0.88; that for `CSCC[C@H](NC(=O)[C@H](CCC(N)=O)NC(=O)[C@H](N)Cc1c[nH]c2ccccc12)C(=O)NCC(=O)N[C@H](Cc1c[nH]cn1)C(=O)N[C@@H](CO)C(=O)O` was 0.78; that for `CSCC[C@H](NC(=O)[C@@H](CCC(N)=O)NC(=O)[C@@H](N)Cc1c[nH]c2ccccc12)C(=O)NCC(=O)N[C@H](Cc1c[nH]cn1)C(=O)N[C@@H](CO)C(=O)O` was 0.64. The value for `CSCC[C@@H](NC(=O)[C@@H](CCC(N)=O)NC(=O)[C@H](N)Cc1c[nH]c2ccccc12)C(=O)NCC(=O)N[C@H](Cc1c[nH]cn1)C(=O)N[C@H](CO)C(=O)O` was 0.44; that for `CSCC[C@@H](NC(=O)[C@@H](CCC(N)=O)NC(=O)[C@H](N)Cc1c[nH]c2ccccc12)C(=O)NCC(=O)N[C@@H](Cc1c[nH]cn1)C(=O)N[C@H](CO)C(=O)O` was 0.43; that for `CSCC[C@@H](NC(=O)[C@@H](CCC(N)=O)NC(=O)[C@@H](N)Cc1c[nH]c2ccccc12)C(=O)NCC(=O)N[C@@H](Cc1c[nH]cn1)C(=O)N[C@H](CO)C(=O)O` was 0.81. `CSCC[C@H](NC(=O)[C@@H](CCC(N)=O)NC(=O)[C@H](N)Cc1c[nH]c2ccccc12)C(=O)NCC(=O)N[C@@H](Cc1c[nH]cn1)C(=O)N[C@@H](CO)C(=O)O` showed a Relative activity of 0.6. The value for `CSCC[C@H](NC(=O)[C@H](CCC(N)=O)NC(=O)[C@@H](N)Cc1c[nH]c2ccccc12)C(=O)NCC(=O)N[C@H](Cc1c[nH]cn1)C(=O)N[C@@H](CO)C(=O)O` was 0.85; that for `CSCC[C@H](NC(=O)[C@@H](CCC(N)=O)NC(=O)[C@@H](N)Cc1c[nH]c2ccccc12)C(=O)NCC(=O)N[C@@H](Cc1c[nH]cn1)C(=O)N[C@@H](CO)C(=O)O` was 0.82. The value for `CSCC[C@H](NC(=O)[C@@H](CCC(N)=O)NC(=O)[C@H](N)Cc1c[nH]c2ccccc12)C(=O)NCC(=O)N[C@H](Cc1c[nH]cn1)C(=O)N[C@@H](CO)C(=O)O` was 1.39; that for `CSCC[C@@H](NC(=O)[C@H](CCC(N)=O)NC(=O)[C@@H](N)Cc1c[nH]c2ccccc12)C(=O)NCC(=O)N[C@@H](Cc1c[nH]cn1)C(=O)N[C@@H](CO)C(=O)O` was 1.01. `CSCC[C@H](NC(=O)[C@H](CCC(N)=O)NC(=O)[C@@H](N)Cc1c[nH]c2ccccc12)C(=O)NCC(=O)N[C@H](Cc1c[nH]cn1)C(=O)N[C@H](CO)C(=O)O` displayed a Relative activity of 1.06.

With `CSCC[C@H](NC(=O)[C@H](CCC(N)=O)NC(=O)[C@@H](N)Cc1c[nH]c2ccccc12)C(=O)NCC(=O)N[C@@H](Cc1c[nH]cn1)C(=O)N[C@@H](CO)C(=O)O`, the Relative activity worked out at 1. In the case of `CSCC[C@@H](NC(=O)[C@@H](CCC(N)=O)NC(=O)[C@H](N)Cc1c[nH]c2ccccc12)C(=O)NCC(=O)N[C@H](Cc1c[nH]cn1)C(=O)N[C@@H](CO)C(=O)O`, the Relative activity is 0.9. The value for `CSCC[C@@H](NC(=O)[C@@H](CCC(N)=O)NC(=O)[C@@H](N)Cc1c[nH]c2ccccc12)C(=O)NCC(=O)N[C@@H](Cc1c[nH]cn1)C(=O)N[C@@H](CO)C(=O)O` was 0.75; that for `CSCC[C@@H](NC(=O)[C@H](CCC(N)=O)NC(=O)[C@@H](N)Cc1c[nH]c2ccccc12)C(=O)NCC(=O)N[C@@H](Cc1c[nH]cn1)C(=O)N[C@H](CO)C(=O)O` was 1.17; that for `CSCC[C@@H](NC(=O)[C@H](CCC(N)=O)NC(=O)[C@@H](N)Cc1c[nH]c2ccccc12)C(=O)NCC(=O)N[C@H](Cc1c[nH]cn1)C(=O)N[C@@H](CO)C(=O)O` was 1.31. `CSCC[C@@H](NC(=O)[C@H](CCC(N)=O)NC(=O)[C@H](N)Cc1c[nH]c2ccccc12)C(=O)NCC(=O)N[C@@H](Cc1c[nH]cn1)C(=O)N[C@H](CO)C(=O)O` came in with a Relative activity of 0.89. On to `CSCC[C@H](NC(=O)[C@H](CCC(N)=O)NC(=O)[C@H](N)Cc1c[nH]c2ccccc12)C(=O)NCC(=O)N[C@H](Cc1c[nH]cn1)C(=O)N[C@H](CO)C(=O)O`, for which the Relative activity stood at 1.

In the case of `CSCC[C@H](NC(=O)[C@H](CCC(N)=O)NC(=O)[C@@H](N)Cc1c[nH]c2ccccc12)C(=O)NCC(=O)N[C@@H](Cc1c[nH]cn1)C(=O)N[C@H](CO)C(=O)O`, the Relative activity was determined as 0.64.
